Results as given in patent EP0049797A2, “Anthelminticum containing 2-(2,3-dimethyl-phenoxy-methyl)-2-imidazoline” (BAYER AG, priority 1980, dated 1982).
Where two headings read alike, the source gives them in different places.

Key:
[1] = system: Haemonchus contortus normaler Stamm; assay: Stomach and intestinal worm test in sheep (faecal egg count reduction), normal strain; format: in vivo, Schaf; details: read-out: Dosis effectiva minima (Red. 90 % in mg/kg)
Excerpt: (§1) Magen- und Darmwurmtest/Schaf
(§2) Experimentell mit Haemonchus contortus infizierte Schafe wurden nach Ablauf der Präpatenzzeit der Parasiten behandelt. Die Wirkstoffmenge wurde als reiner Wirkstoff in Gelatinekapseln oral appliziert oder in einem geeigneten Lösungsmittel gelöst und subcutan oder dermal appliziert.
(§3) Der Wirkungsgrad wird dadurch bestimmt, daß man die mit dem Kot ausgeschiedenen Wurmeier vor und nach der Be-handlung quantitativ auszählt.
(§4) Ein völliges Sistieren der Eiausscheidung nach der Behandlung bedeutet, daß die Würmer abgetrieben wurden oder so geschädigt sind, daß sie keine Eier mehr produzieren können (Dosis effectiva). Geprüfte Wirkstoffe und wirksame Dosierungen (dosis effectiva minima) sind aus der nachfolgenden Tabelle ersichtlich.

[2] = system: Haemonchus contortus gegen Benz-imidazole resistenter Stamm; assay: Stomach and intestinal worm test in sheep (faecal egg count reduction), benzimidazole-resistant strain; format: in vivo, Schaf; details: read-out: Dosis effectiva minima (Red. 90 % in mg/kg), per os, experimentally infected sheep
Excerpt: as §1, §2, §3, §4

[3] = per os, experimentally infected sheep, normaler Stamm

Row | SMILES | minimal effective dose ([1]; dermal, experimentally infected sheep, normaler Stamm) [mg/kg] | minimal effective dose [1, 3] [mg/kg] | minimal effective dose ([1]; subcutan, experimentally infected sheep, normaler Stamm) [mg/kg] | minimal effective dose [1] [mg/kg] | minimal effective dose [2] [mg/kg]
1 | Cc1cccc(OCC2=NCCN2)c1C [2-(2,3-Dimethyl-phenoxymethyl)-2-imidazolin] | 1 | 0.5 | 0.5 |  | 
2 | CCCSc1ccc2nc(NC(=O)OC)[nH]c2c1 [Albendazol] |  |  |  | 0.5 | 5
3 | CCCCc1ccc2[nH]c(NC(=O)OC)nc2c1 [Parbendazol] |  |  |  | 1 | 10
4 | c1ccc2[nH]c(-c3cscn3)nc2c1 [Thiabenzol] |  | 25 |  |  | 250
